Measured values as given in PMC6934184, “Selective DNA-PKcs inhibition extends the therapeutic index of localized radiotherapy and chemotherapy” (The Journal of Clinical Investigation, 2019).

Molecular target: T1, CSF1R (FMS) (Homo sapiens, UniProt P07333)
T1 construct: purchased Thermo Fisher Scientific (Life Technologies) SelectScreen
Assay: SelectScreen Z'LYTE
Type: biochemical
How it was run: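 NU5455 was profiled across the SelectScreen Broad panel of kinase activity and binding assays. Z'LYTE reactions such as CSF1R ran at apparent Km ATP, while the Adapta CAMK1 assay used ATP listed as 10. Values are given as percent.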

T1 sequence (P07333 20-972): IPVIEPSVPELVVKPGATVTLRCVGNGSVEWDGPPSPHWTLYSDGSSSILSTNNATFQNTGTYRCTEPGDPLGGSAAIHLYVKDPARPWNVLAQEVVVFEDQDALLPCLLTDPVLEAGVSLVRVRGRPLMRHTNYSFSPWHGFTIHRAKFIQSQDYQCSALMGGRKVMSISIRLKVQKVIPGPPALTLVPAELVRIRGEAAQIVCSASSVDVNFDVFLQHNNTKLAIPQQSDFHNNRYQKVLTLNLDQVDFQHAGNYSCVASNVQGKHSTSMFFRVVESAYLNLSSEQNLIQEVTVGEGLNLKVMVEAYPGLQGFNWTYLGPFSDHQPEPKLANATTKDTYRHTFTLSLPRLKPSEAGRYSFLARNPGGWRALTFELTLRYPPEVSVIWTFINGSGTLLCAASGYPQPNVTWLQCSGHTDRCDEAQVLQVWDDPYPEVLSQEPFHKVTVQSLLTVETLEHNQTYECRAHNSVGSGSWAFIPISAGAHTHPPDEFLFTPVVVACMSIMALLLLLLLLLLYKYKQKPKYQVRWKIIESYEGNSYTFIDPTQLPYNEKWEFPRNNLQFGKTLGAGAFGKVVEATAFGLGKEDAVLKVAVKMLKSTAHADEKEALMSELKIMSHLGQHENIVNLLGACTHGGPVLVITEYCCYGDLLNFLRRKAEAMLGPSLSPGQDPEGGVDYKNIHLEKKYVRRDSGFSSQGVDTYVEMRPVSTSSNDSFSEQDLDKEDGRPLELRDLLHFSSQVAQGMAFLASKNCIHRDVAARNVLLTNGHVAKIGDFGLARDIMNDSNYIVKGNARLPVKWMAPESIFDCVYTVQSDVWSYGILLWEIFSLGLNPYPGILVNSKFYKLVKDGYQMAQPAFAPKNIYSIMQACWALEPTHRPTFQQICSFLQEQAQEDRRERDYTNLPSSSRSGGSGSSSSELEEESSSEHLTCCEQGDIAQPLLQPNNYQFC

CN(C(=O)CN1CCOCC1)c1ccc2sc3c(-c4cccc5c(=O)cc(N6CC7CCC(C6)O7)oc45)cccc3c2c1 [NU5455]
inhibition at 1 µM: 4.3%
